Assay [1] relates to BACE1 promoter. The assay can be described thus: BACE1 promoter activity, BACE1 promoter-luciferase vector, Dual-Luciferase assay. The conditions noted are these: Homo sapiens, read-out: decrease of BACE1 promoter activity. Format: cell-based. The procedure:
A BACE1 promoter-luciferase vector was transfected to brain nerve cells (SH-SY5Y). […] A change in a BACE1 promoter activity was measured using a Dual-Luciferase assay kit.

Assay [2] deals with BACE1 proteins. The assay can be described thus: Amount of expression of BACE1 proteins in brain nerve cells (Western blot). Format: cell-based, human. The conditions noted are these: SH-SY5Y cells, actin control. As to the method:
As brain nerve cells, human neuroblastoma cells SH-SY5Y were used. […] The SH-SY5Y cells were plated at 5×10^5 cells/well into a 6-well plate. […] Then, the amount of expression of BACE1 proteins was determined by Western blot. Actin was used throughout as a control.

Where [3] appears, read: SH-SY5Y transfected with BACE1 promoter-luciferase vector, 10 μM for 24 hours.
Setting [4] is: treated 24 hours at 0.625, 1.25, 2.5, 5 and 10 μM.

Structures can show the parent of a compound that is named as a salt. Where two headings read alike, the source gives them in different places.

Take `CCN(CC)C(=O)/C(C#N)=C/c1cc(O)c(O)c([N+](=O)[O-])c1` [entacapone]: the inhibition at 10 µM in assay [1] (setting [3]) was at least 50%.
On the same count and under the same terms, as for `CCCOc1ccccc1-c1nc2nn[nH]c2c(=O)[nH]1` [zaprinast], the figure is at least 50%; as for `NC1CCN(c2nc3c(cc2F)c(=O)c(C(=O)O)cn3-c2ccc(F)cc2F)C1` (stereo not drawn) [tosufloxacin hydrochloride], at least 50%; as for `COc1cc(C(=O)NCc2ccc(OCCN(C)C)cc2)cc(OC)c1OC` [trimethobenzamide hydrochloride], at least 50%.
For `CCCN(CCC)S(=O)(=O)c1ccc(C(=O)O)cc1` [probenecid], the inhibition at 10 µM in assay [1] (setting [3]) was at least 50%.
In the case of `CCN(CCCCOC(=O)c1ccc(OC)c(OC)c1)C(C)Cc1ccc(OC)cc1` (stereo not drawn) [mebeverine hydrochloride], in assay [1] (setting [3]), the inhibition at 10 µM is at least 50%.
Turning to `O=C1Nc2ccc(Cl)cc2[C@@](C#CC2CC2)(C(F)(F)F)O1` [efavirenz], in assay [1] (setting [3]), the inhibition at 10 µM was at least 50%.
Same read-out and setting: as for `O=C(c1ccc(OCCN2CCCCC2)cc1)c1c(-c2ccc(O)cc2)sc2cc(O)ccc12` [raloxifene hydrochloride], the figure is at least 50%; as for `CC1(C)O[C@@H]2C[C@H]3[C@@H]4C[C@H](F)C5=CC(=O)C=C[C@]5(C)[C@H]4[C@@H](O)C[C@]3(C)[C@]2(C(=O)CO)O1` [flunisolide], at least 50%.
Turning to `COc1ccc2c(c1)[nH]c1c(C)nccc12` [harmine hydrochloride], in assay [1] (SH-SY5Y, 24 h), the inhibition at 10 µM was at least 50%.
`CC[C@@]1(O)C(=O)OCc2c1cc1n(c2=O)Cc2cc3c(CN(C)C)c(O)ccc3nc2-1` [topotecan]: the inhibition at 10 µM in assay [1] (setting [3]) was at least 50%.
For `CC[C@H](c1ccc(O)cc1)[C@@H](CC)c1ccc(O)cc1` [hexestrol], in assay [1] (setting [3]), the inhibition at 10 µM was at least 50%.
In the case of `COC(=O)Nc1nc2cc(C(=O)c3ccccc3)ccc2[nH]1` [mebendazole], the inhibition at 10 µM in assay [1] (setting [3]) is at least 50%. Also, the “amount of expression of BACE1 proteins” value in assay [2] (setting [4]) was “decreased at 0.625 μM to 10 μM”.
As for `CC(C)=CCC/C(C)=C/CC/C(C)=C/CO` [farnesol], in assay [1] (setting [3]), the inhibition at 10 µM is at least 50%. Moreover, the “amount of expression of BACE1 proteins” value in assay [2] (treated 24 hours at 0.001, 0.01 and 0.1 μM) is “decreased at 0.01 μM and 0.1 μM”.
For the compound `Cn1cnc([N+](=O)[O-])c1Sc1ncnc2nc[nH]c12` [azathioprine], in assay [1] (setting [3]), the inhibition at 10 µM is at least 50%.
Turning to `Nc1ccc(S(=O)(=O)Nc2cnc3ccccc3n2)cc1` [sulfaquinoxaline sodium salt], the inhibition at 10 µM in assay [1] (setting [3]) is at least 50%.
For `COC(=O)Nc1nc2cc(Sc3ccccc3)ccc2[nH]1` [fenbendazole], the inhibition at 10 µM in assay [1] (setting [3]) is at least 50%. Further, the “amount of expression of BACE1 proteins” value in assay [2] (setting [4]) was “decreased at 0.625 μM to 10 μM”.
With `Clc1cnccn1` [2-chloropyrazine], the inhibition at 10 µM in assay [1] (setting [3]) is at least 50%.
Regarding `C=C(NC(=O)C(=C)NC(=O)c1csc(C2=N[C@@H]3c4csc(n4)[C@H]4NC(=O)c5csc(n5)[C@H]([C@](C)(O)[C@@H](C)O)NC(=O)[C@H]5CSC(=N5)/C(=C/C)NC(=O)[C@H]([C@@H](C)O)NC(=O)c5csc(n5)[C@]3(CC2)NC(=O)[C@H](C)NC(=O)C(=C)NC(=O)[C@H](C)NC(=O)[C@H]([C@@H](C)CC)N[C@@H]2C=Cc3c([C@H](C)O)cc(nc3[C@H]2O)C(=O)O[C@@H]4C)n1)C(N)=O` [thiostrepton], the inhibition at 10 µM in assay [1] (SH-SY5Y, 24 h) was at least 50%.
As to `COc1cc2c(c(OC)c1OC)-c1ccc(OC)c(=O)cc1[C@@H](NC(C)=O)CC2` [colchicine], the inhibition at 10 µM in assay [1] (SH-SY5Y, 24 h) is at least 50%.
For `CC[C@@]1([C@@H]2O[C@@H]([C@H]3O[C@@](O)(CO)[C@H](C)C[C@@H]3C)C[C@@H]2C)CC[C@H]([C@]2(C)CC[C@]3(C[C@H](O)[C@@H](C)[C@@H]([C@@H](C)[C@@H](OC)[C@H](C)C(=O)O)O3)O2)O1` [monensin sodium salt], the inhibition at 10 µM in assay [1] (setting [3]) is at least 50%.

The values are drawn from patent publication US9549942B2, “Composition for preventing or treating degenerative brain diseases including compound downregulating expression of BACE1 proteins” (RESEARCH & BUSINESS FOUNDATION SUNGKYUNKWAN UNIVERSITY, priority 2013, dated 2017).
